According to ChEMBL document CHEMBL4840331, “Configurational Assignment of a Flexible Benzo[g]isochromene Stereodiad from Rubia philippinensis and Inhibition of Soluble Epoxide Hydrolase Activity” (J Nat Prod, 2021):
pIC50: −log10 of the molar value.

Biological target: T1, Bifunctional epoxide hydrolase 2 (Homo sapiens, UniProt P34913)
T1 sequence (P34913 whole entry): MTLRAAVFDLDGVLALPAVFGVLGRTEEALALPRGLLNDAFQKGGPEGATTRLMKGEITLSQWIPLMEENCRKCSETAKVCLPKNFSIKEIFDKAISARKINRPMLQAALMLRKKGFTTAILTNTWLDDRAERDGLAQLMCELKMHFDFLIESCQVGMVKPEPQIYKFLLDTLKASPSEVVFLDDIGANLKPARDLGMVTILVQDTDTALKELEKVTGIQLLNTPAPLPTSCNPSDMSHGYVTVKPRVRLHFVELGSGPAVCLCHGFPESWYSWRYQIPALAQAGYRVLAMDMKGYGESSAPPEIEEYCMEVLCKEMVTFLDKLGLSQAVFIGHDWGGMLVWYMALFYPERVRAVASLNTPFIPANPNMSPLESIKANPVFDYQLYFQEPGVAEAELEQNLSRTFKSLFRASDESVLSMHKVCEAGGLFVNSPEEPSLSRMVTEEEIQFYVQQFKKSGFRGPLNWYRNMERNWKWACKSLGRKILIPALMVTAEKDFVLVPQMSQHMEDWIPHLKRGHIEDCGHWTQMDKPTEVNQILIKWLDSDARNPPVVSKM
Test: Inhibition of sEH (unknown origin) expressed in baculovirus expression system incubated for 1 hr

- pIC50: 6.22
SMILES: C[C@@H](C(=O)O)[C@H]1Cc2c(c(O)c3ccccc3c2O[C@@H]2O[C@H](CO)[C@@H](O)[C@H](O)[C@H]2O)C(=O)O1
